From US20240024298A1, “COMPOSITIONS AND METHODS FOR THE TREATMENT OF HPV-ASSOCIATED DISEASE STATES” (Children's Hospital Medical Center, priority 2022, published 2024) come the findings set out here.

SMILES strings stand for the structures.

Holding throughout (type): cell-based
Assay [1] concerns HPV+ keratinocytes grown into organotypic epithelial rafts. As to the kind of experiment: EdU proliferation in HPV+ organotypic epithelial rafts. On the procedure:
(§1) On raft day 14, the tissues were harvested and lysed with RIPA buffer to extract protein for western blotting. […] Beta-actin was used to show equal protein loading. (B) HPV− and HPV+ rafts were treated with increasing doses of OSMI-1, an inhibitor of OGT activity, from day 8 to day 14 of the raft culturing protocol. EdU, a thymidine analog that incorporates into DNA during DNA synthesis, was added to the media on day 13. 24 h later, on raft day 14, tissues were fixed in PFA for paraffin-embedding, sectioning, and immunofluorescence (IF) staining. Representative IF images are shown with nuclei stained with DAPI (blue), and proliferating cells visualized with click chemistry to detect EdU incorporation (pink). Quantification of the number of EdU+ cells per field is shown to the right. […] 2-way ANOVA was used to determine significance. Representative images shown. n=3.
(§2) Representative IF images are shown with nuclei stained with DAPI (blue), proliferating cells visualized with click chemistry to detect EdU incorporation (white), basal cell layer keratinocytes stained with collagen 17A (COL17A; green) and differentiated layer keratinocytes stained with keratin 10 (K10; red). Quantifications of the total (top graph) and suprabasal (lower graph) number of EdU+ cells per field are shown to the right. […] 2-way ANOVA was used to determine significance. Representative images shown. n=3.

Assay [2] has as its system HPV+ keratinocytes 3D spheroids. As to the kind of experiment: 3D spheroid area, brightfield microscopy. As to conditions: HPV+ spheres, culture day 4, n=4. How it is done: FIG. 3 (A) HPV+ and HPV− keratinocytes were seeded in round-bottom plates to form 3D spheroids (Day 0). 48 h after plating the cells (Day 2), increasing doses of Eliglustat were added to the media. 48 h after adding the drug treatment (Day 4), spheroids were imaged with brightfield microscopy and images quantified for sphere area. n=4. (B) Quantification of sphere area on culture day 4 after treatment with increasing doses of Eliglustat for 48 h.

Assay [3] deals with HPV− keratinocytes grown into organotypic epithelial rafts. As to the kind of experiment: EdU proliferation in HPV− organotypic epithelial rafts. On the procedure:
as §1, §2

Where [4] appears, read: increasing doses of Eliglustat, raft day 8 to day 14, EdU added day 13, n=3.
Where [5] appears, read: 6.25 uM OSMI-1, treated raft day 8 to day 14, EdU added day 13, n=3.
Setting [6] is: 25 uM OSMI-1 (highest dose tested), raft day 8 to day 14.

Regarding `CCCCCCCC(=O)N[C@H](CN1CCCC1)[C@H](O)c1ccc2c(c1)OCCO2` [Eliglustat], the “Proliferation (total and suprabasal number of EdU+ cells per field)” value in assay [1] (setting [4]) is on record as “significantly decreased with increasing dose”; in assay [3] (setting [4]), “no significant effect on proliferation”. Further, the Sphere area result in assay [2] (25 uM Eliglustat (highest dose tested), 48 h) was “significantly reduce HPV+ sphere area to that of HPV− spheres”; in assay [2] (increasing doses of Eliglustat for 48 h), “decreased concomitantly with increasing Eliglustat dose”.
As to `COc1ccccc1[C@@H](NS(=O)(=O)c1ccc2[nH]c(=O)ccc2c1)C(=O)N(Cc1ccco1)Cc1cccs1` [OSMI-1], the “Proliferation (number of EdU+ cells per field)” value in assay [1] (setting [5]) is on record as “significantly decreased”; in assay [1] (setting [6]) it was “decreased proliferation”; in assay [3] (setting [5]) it was “no effect on proliferation”; in assay [3] (setting [6]), “decreased proliferation”.
